Source: PubChem BioAssay (NCI)
Several values for one entry are separate records, joined by “and”; a condition that tells them apart may be missing. Equal values may be shown once.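 Briefly, cells in 96-well plates were exposed to five compound concentrations for 48 h, and endpoints were estimated by linear interpolation. GI50 is the concentration that inhibits growth by half. TGI is the concentration that stops growth completely.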

How the values were obtained:
Test in all cases: inhibition of tumour cell growth, NCI panel, 48 h
TK-10 renal = test system: TK-10 renal
UACC-257 melanoma = test system: UACC-257 melanoma
BT-549 breast = test system: BT-549 breast
SF-539 CNS = test system: SF-539 CNS
OVCAR-8 ovarian = test system: OVCAR-8 ovarian
HCT-15 colon = test system: HCT-15 colon
HL-60(TB) leukemia = test system: HL-60(TB) leukemia
SNB-75 CNS = test system: SNB-75 CNS
UO-31 renal = test system: UO-31 renal
SF-295 CNS = test system: SF-295 CNS

Row | Compound | GI50 (TK-10 renal) | TGI (TK-10 renal) | GI50 (UACC-257 melanoma) | TGI (UACC-257 melanoma) | GI50 (BT-549 breast) | TGI (BT-549 breast) | GI50 (SF-539 CNS) | TGI (SF-539 CNS) | GI50 (OVCAR-8 ovarian) | TGI (OVCAR-8 ovarian) | GI50 (HCT-15 colon) [µM] | TGI (HCT-15 colon) | GI50 (HL-60(TB) leukemia) | TGI (HL-60(TB) leukemia) | GI50 (SNB-75 CNS) [µM] | TGI (SNB-75 CNS) | GI50 (UO-31 renal) | TGI (UO-31 renal) | GI50 (SF-295 CNS) [µM] | TGI (SF-295 CNS)
1 | Cc1ccc(-c2nc(NCCOCCOCCN)nc(N3CCN(c4ccccn4)CC3)n2)cc1 | 18.5 µM | 34.9 µM | 6.85 µM | 15.5 µM | 14.1 µM | 29.2 µM | 16.8 µM | 35.1 µM | 17.8 µM | 37.5 µM | 10.1 | 29.8 µM | 18.7 µM | 40.5 µM | 13.9 | 27.4 µM | 13.3 µM | 29.9 µM | 18.4 | 38.6 µM
2 | CC(C)=C[C@@H]1C[C@H](C)[C@H]2CC[C@H](C)c3c(O)c(OC4OC(C)C(O)C(O)C4O)c(C)c1c32 (some centres undefined) | 16.3 µM | 30.2 µM | 14.2 µM | 27.3 µM | 18.9 µM | 34.8 µM | 17.9 µM | 33 µM | 14.6 µM | 28 µM | 14.5 | 27.6 µM | 10.4 µM | 25.7 µM | 14.4 | 27.7 µM | 14.6 µM | 27.8 µM | 15.9 | 30.9 µM
3 | NNc1c(C(N)=O)c2c(N)ncnc2n1C1OC(CO)C(O)C1O (centres undefined) | 0.0243 µM and 0.0434 µM | 1.14 µM and 1.49 µM | 0.0404 µM and 0.132 µM | 0.254 µM and 1.37 µM | 0.0355 µM and 0.0407 µM | 0.624 µM and 0.672 µM | 0.0529 µM and 0.0718 µM | 1.15 µM and 0.273 µM | 0.0178 µM and 0.0343 µM | 11.5 µM and 3.51 µM | 0.0292 | 1.5 µM and 3.04 µM | 0.0665 µM and < 0.0118 µM | 0.785 µM and 0.125 µM | 0.106 | 1.09 µM and 0.448 µM | < 0.0143 µM and 0.0246 µM | 0.0959 µM and 0.454 µM |  | 9.44 µM and 2.91 µM
4 | CC[C@H](C)[C@H](NC(=O)C12C3C4C1C1C2C3C41NC)C(=O)N(C)[C@H](C[C@@H](OC(C)=O)c1nc(C(=O)N[C@@H](Cc2ccccc2)C[C@H](C)C(=O)OC)cs1)C(C)C (some centres undefined) | > 4 µM | > 14.3 µM | 0.655 µM | > 14.3 µM | 0.214 µM | 3.51 µM | 0.546 µM | > 6.08 µM | 0.717 µM | > 14.3 µM | 1.27 | > 14.3 µM | 0.0568 µM | 0.346 µM | 0.319 | > 14.3 µM | 4.16 µM | > 14.3 µM | 0.526 | > 9.29 µM
5 | CC(=O)ON(OCc1ccc2ccccc2c1)C(C)=O | > 100 µM | > 100 µM | > 100 µM | > 100 µM | > 100 µM | > 100 µM | > 100 µM | > 100 µM | > 100 µM | > 100 µM | > 100 | > 100 µM | > 100 µM | > 100 µM | 96.6 | > 100 µM | 85 µM | > 100 µM | > 100 | > 100 µM
6 | O=[N+]([O-])c1ccccc1N=Nc1c(O)[nH]c2c(Cl)cccc12 |  | > 54.9 µM |  | > 42.5 µM |  | > 82.3 µM |  | > 100 µM |  | 37.4 µM |  | > 100 µM |  | > 100 µM |  | 51.7 µM |  | > 67.2 µM |  | 31.6 µM
7 | S=c1ssnc1-c1cc2ccccc2o1 | 22.1 µM | 45.9 µM | 6.09 µM | 20.5 µM | 13.8 µM | 27.7 µM | 15.3 µM | 29.8 µM | 11.3 µM | 29.4 µM | 11.5 | 25.5 µM | 14 µM | > 100 µM | 23.3 | 95.8 µM | 13.4 µM | 30 µM | 14.3 | 33.8 µM
8 | O=C(O)CNc1ccc2c(c1)Cc1cc(Br)ccc1-2 |  | > 84.6 µM |  | 72.7 µM |  | 58.6 µM |  | 58.4 µM |  | > 100 µM |  | > 100 µM |  | > 100 µM |  | > 89.8 µM |  | > 100 µM |  | 97 µM
9 | O=C1/C(=C/c2ccc(Cl)cc2)CCC1CNc1ccc(Cl)cc1 (centres undefined) |  | 21.8 µM |  | 32.4 µM |  | 65.3 µM |  | 23.3 µM |  | 19.2 µM |  | 15.3 µM |  | 22.1 µM |  | 85.2 µM |  | 30.1 µM |  | > 100 µM
10 | CCOc1ccc2nc(NC(=O)C(=O)C3C(=O)C(CC4C(=O)c5ccccc5C4=O)C(=O)CC3(C)C)sc2c1 (centres undefined) |  | > 100 µM |  | > 100 µM |  | > 100 µM |  | > 100 µM |  | > 100 µM |  | > 100 µM |  | 64.2 µM |  | > 100 µM |  | > 100 µM |  | > 100 µM
11 | N=C(N)c1ccc2oc3ccc(C(=N)N)cc3c(=O)c2c1 |  | > 100 µM |  | > 100 µM |  | > 100 µM |  | > 100 µM |  | > 100 µM |  | > 100 µM |  | > 100 µM |  | > 100 µM |  | > 100 µM |  | > 100 µM
12 | Nc1ccc(CC[C@H]2CCC/C=C/[C@@H]3C[C@H](O)C[C@H]3[C@H](O)/C=C/C(=O)O2)cc1 | 0.0382 µM | 0.831 µM | 0.0565 µM | 37.1 µM | 0.0381 µM | 16.1 µM | 0.0562 µM | > 100 µM | 0.0407 µM | > 100 µM | 0.0455 | 16.7 µM | 0.0535 µM | 1.55 µM | 0.0189 | > 100 µM | 0.0276 µM | 2.34 µM | 0.0476 | > 100 µM
